Key:
[1] = tested on: Interleukin-2 (IL-2) production/release in Jurkat T cells; assay: Jurkat IL-2 Production Assay (PHA-stimulated, IL-2 AlphaLisa); format: cell-based; conditions: Homo sapiens, PHA 15 μg/ml, 22 h, inhibition of IL-2 production
Experimental: The effect of compounds of the invention on Interleukin-2 (IL-2) production/release was tested in the Jurkat T cell line (ECACC) clone E6-1.
Jurkat T cells were cultured in DMEM/F12/Glutamax (Gibco) containing 10% FCS (Gibco), and maintained at 37° C., 5% CO2. Cells were split twice a week [5*10^6 (Mon-Thu) and 1*10^7 (Thu-Mon) cells/50 ml medium in 1-175 ZK culture flasks, respectively].
Prior to experiment, cells were seeded on 96 well plates (Cellstar 96 Well; Cat No. 655180, Greiner bio-one) at a density of 5*10^5 cells/well in DMEM/F12/Glutamax (Gibco) containing 10% FCS (Gibco), and incubated for 60 min at 37° C., 5% CO2. Subsequently, compounds were added and cells were allowed to incubate for 30 min at 37° C., 5% CO2. Cells were then stimulated with 15 μg/ml Phyto-hemagglutinin (PHA; Sigma) for 22 hours at 37° C., 5% CO2.
Before sampling of the supernatants, cells were spun down (200*g/5 min/RT). The amount of IL-2 released into the supernatant was quantified with the human IL-2 AlphaLisa kit (Perkin Elmer) according to manufacturer's instructions. Luminescence proximity measurements were carried out in the Synergy H4 reader (BioTek) employing the fluorescence setting of the reader (ex: 680/30 nm; em: 620/40 nm).
Inhibition of IL-2 production/release in/from Jurkat T cells was quantified as follows: Zero percent inhibition (MAX) was defined as the [IL-2] determined in supernatants derived from cells to which PHA & DMSO-only had been added instead of compound. Hundred percent inhibition (MIN) was defined as the [IL-2] determined in supernatants derived from cells that had been pre-treated with 1 μM CyclosporineA (Sigma) before the addition of 15 μg/ml PHA.
For routine IC50 determinations of compounds, 8 concentrations of a serial dilution (1:3.16) were tested, starting off from 10 μM.

CRAC channel = target: T1, CRAC channel (Homo sapiens, UniProt Q96D31); assay: HEK Calcium Influx Assay (FLIPR), inhibition of store-operated Ca2+ entry after thapsigargin store depletion; format: cell-based; conditions: 10 μM compound, HEK293 cells, read-out: % inhib. [@ 10 μM] FLIPR
T1 construct: endogenous in cells; host or cells: HEK293 (ECACC), untransfected
T1 sequence (Q96D31 whole entry): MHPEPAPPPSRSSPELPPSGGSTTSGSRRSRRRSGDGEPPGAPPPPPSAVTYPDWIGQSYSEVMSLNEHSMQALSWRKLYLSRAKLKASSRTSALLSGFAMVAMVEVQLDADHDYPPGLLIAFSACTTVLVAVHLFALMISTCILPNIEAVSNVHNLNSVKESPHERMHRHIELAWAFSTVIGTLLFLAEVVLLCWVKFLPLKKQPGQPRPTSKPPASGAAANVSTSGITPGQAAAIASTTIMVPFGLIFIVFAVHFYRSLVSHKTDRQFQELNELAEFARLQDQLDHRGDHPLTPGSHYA
Outline: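 HEK293 cells loaded with Calcium-4 dye in Ca2+-free HBS (pH 7.4), stores depleted with 2 μM thapsigargin for 10 min (100 μM EGTA); after 3 mM CaCl2 re-addition and 15 min steady-state, compounds added and FLIPR signal averaged 9.5–10 min post-dose. IC50 from 8-point 1:3.16 dilutions from 10 μM, normalised to DMSO and non-depleted wells.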

| SMILES | IC50 [1] [µM] | inhibition at 10 µM (CRAC channel) [%] |
| --- | --- | --- |
| Cc1sc(-c2cnccn2)nc1N1CCc2[nH]c(-c3c(F)cccc3F)cc2C1 [Example 26, 4-[2-(2,6-Difluoro-phenyl)-4,5,6,7-tetrahydro-1H-pyrrolo[3,2-c]pyridin-5-yl]-5-methyl-2-pyrazin-2-yl-thiazole] | < 0.5 | > 70 |
| Cc1cc(S(C)(=O)=O)ncc1N1CCc2[nH]c(-c3ccncc3F)cc2C1 [Example 90, 2-(3-Fluoro-pyridin-4-yl)-5-(4-methyl-6-methylsulfonyl-pyridin-3-yl)-4,5,6,7-tetrahydro-1H-pyrrolo[3,2-c]pyridine] | 1 to 5 | > 70 |
| Fc1cccc(F)c1-c1cc2c([nH]1)CCN(c1cnc(C(F)(F)F)cc1C1CC1)C2 [Example 113, 5-[4-Cyclopropyl-6-(trifluoromethyl)-pyridin-3-yl]-2-(2,6-difluoro-phenyl)-4,5,6,7-tetrahydro-1H-pyrrolo[3,2-c]pyridine] | < 0.5 | < 50 |
| Cc1cc(C#N)cnc1N1CCc2[nH]c(C3CCCCC3)cc2C1 [Example 102, 6-(2-Cyclohexyl-4,5,6,7-tetrahydro-1H-pyrrolo[3,2-c]pyridin-5-yl)-5-methyl-nicotinonitrile] | 0.5 to 1 | > 70 |
| Cc1cc(C(F)(F)F)ncc1N1CCc2[nH]c(C3CCOCC3)cc2C1 [Example 93, 5-[4-Methyl-6-(trifluoromethyl)-pyridin-3-yl]-2-tetrahydro-pyran-4-yl-4,5,6,7-tetrahydro-1H-pyrrolo[3,2-c]pyridine] | 1 to 5 | > 70 |
| Cc1nc(C#N)ccc1N1CCc2[nH]c(-c3c(F)cccc3F)cc2C1 [Example 77, 5-[2-(2,6-Difluoro-phenyl)-4,5,6,7-tetrahydro-1H-pyrrolo[3,2-c]pyridin-5-yl]-6-methyl-pyridine-2-carbonitrile] | 1 to 5 | > 70 |
| CCOc1cc(C(F)(F)F)ncc1N1CCc2[nH]c(-c3c(F)cccc3F)cc2C1 [Example 116, 2-(2,6-Difluoro-phenyl)-5-[4-ethoxy-6-(trifluoromethyl)-pyridin-3-yl]-4,5,6,7-tetrahydro-1H-pyrrolo[3,2-c]pyridine] | < 0.5 | > 70 |
| Cc1cc(Cl)ccc1N1CCc2[nH]c(-c3c(F)cccc3F)cc2C1 [Example 11, 5-(4-Chloro-2-methyl-phenyl)-2-(2,6-difluoro-phenyl)-4,5,6,7-tetrahydro-1H-pyrrolo[3,2-c]pyridine] | 0.5 to 1 | < 50 |
| COc1cc(C(F)(F)F)ncc1N1CCc2[nH]c(-c3c(F)cccc3F)cc2C1 [Example 112, 2-(2,6-Difluoro-phenyl)-5-[4-methoxy-6-(trifluoromethyl)-pyridin-3-yl]-4,5,6,7-tetrahydro-1H-pyrrolo[3,2-c]pyridine] | < 0.5 | < 50 |
| Cc1cc(C#N)ccc1N1CCc2[nH]c(-c3c(F)cccc3F)cc2C1 [Example 12, 4-[2-(2,6-Difluoro-phenyl)-4,5,6,7-tetrahydro-1H-pyrrolo[3,2-c]pyridin-5-yl]-3-methyl-benzonitrile] | < 0.5 | 50 to 70 |
| Cc1cc(S(C)(=O)=O)ncc1N1CCc2[nH]c(-c3cncc(F)c3C)cc2C1 [Example 96, 2-(5-Fluoro-4-methyl-pyridin-3-yl)-5-(4-methyl-6-methylsulfonyl-pyridin-3-yl)-4,5,6,7-tetrahydro-1H-pyrrolo[3,2-c]pyridine] | 0.5 to 1 | > 70 |
| Cc1cc(Cl)c(F)cc1N1CCc2[nH]c(-c3c(F)cccc3F)cc2C1 [Example 71, 5-(4-Chloro-5-fluoro-2-methyl-phenyl)-2-(2,6-difluoro-phenyl)-4,5,6,7-tetrahydro-1H-pyrrolo[3,2-c]pyridine] | 1 to 5 | < 50 |
| Cc1cc(S(C)(=O)=O)ncc1N1CCc2[nH]c(C3CCCOC3)cc2C1 (stereo not shown) [Example 115, 5-(4-Methyl-6-methylsulfonyl-pyridin-3-yl)-2-tetrahydro-pyran-3-yl-4,5,6,7-tetrahydro-1H-pyrrolo[3,2-c]pyridine] | 1 to 5 | < 50 |
| COc1cc(OC(F)F)ncc1N1CCc2[nH]c(-c3c(F)cccc3F)cc2C1 [Example 140, 5-[6-(Difluoro-methoxy)-4-methoxy-pyridin-3-yl]-2-(2,6-difluoro-phenyl)-4,5,6,7-tetrahydro-1H-pyrrolo[3,2-c]pyridine] | < 0.5 | > 70 |
| CCCCc1cc2c([nH]1)CCN(c1cnc(S(C)(=O)=O)cc1C)C2 [Example 74, 2-Butyl-5-(4-methyl-6-methylsulfonyl-pyridin-3-yl)-4,5,6,7-tetrahydro-1H-pyrrolo[3,2-c]pyridine] | 1 to 5 | > 70 |
| COc1cc2c(cc1N1CCc3[nH]c(C4CCCCC4)cc3C1)CCS2(=O)=O [Example 103, 5-(2-Cyclohexyl-4,5,6,7-tetrahydro-1H-pyrrolo[3,2-c]pyridin-5-yl)-6-methoxy-2,3-dihydro-benzo[b]thiophene 1,1-dioxide] | < 0.5 | < 50 |
| Cc1cc(S(C)(=O)=O)ncc1N1CCc2[nH]c(C3CCC(F)(F)CC3)cc2C1 [Example 122, 2-(4,4-Difluoro-cyclohexyl)-5-(4-methyl-6-methylsulfonyl-pyridin-3-yl)-4,5,6,7-tetrahydro-1H-pyrrolo[3,2-c]pyridine] | 1 to 5 | 50 to 70 |
| CCOc1cc(C(F)(F)F)c(N2CCc3[nH]c(-c4c(F)cccc4F)cc3C2)cn1 [Example 100, 2-(2,6-Difluoro-phenyl)-5-[6-ethoxy-4-(trifluoromethyl)-pyridin-3-yl]-4,5,6,7-tetrahydro-1H-pyrrolo[3,2-c]pyridine] | 1 to 5 | < 50 |
| CNS(=O)(=O)c1ccc(N2CCc3[nH]c(-c4cnc(C)cc4C)cc3C2)c(C)c1 [Example 127, 4-[2-(4,6-Dimethyl-pyridin-3-yl)-4,5,6,7-tetrahydro-1H-pyrrolo[3,2-c]pyridin-5-yl]-N,3-dimethyl-benzenesulfonic acid amide] | 1 to 5 | > 70 |
| Cc1cc(S(C)(=O)=O)ncc1N1CCc2[nH]c(-c3cccnc3C)cc2C1 [Example 83, 5-(4-Methyl-6-methylsulfonyl-pyridin-3-yl)-2-(2-methyl-pyridin-3-yl)-4,5,6,7-tetrahydro-1H-pyrrolo[3,2-c]pyridine] | 1 to 5 | > 70 |
| Cc1cc(S(C)(=O)=O)c(F)cc1N1CCc2[nH]c(-c3c(F)cccc3F)cc2C1 [Example 101, 2-(2,6-Difluoro-phenyl)-5-(5-fluoro-2-methyl-4-methylsulfonyl-phenyl)-4,5,6,7-tetrahydro-1H-pyrrolo[3,2-c]pyridine] | < 0.5 | > 70 |
| CCn1nc(C(F)(F)F)cc1N1CCc2[nH]c(-c3c(F)cccc3F)cc2C1 [Example 130, 2-(2,6-Difluoro-phenyl)-5-[2-ethyl-5-(trifluoromethyl)-2H-pyrazol-3-yl]-4,5,6,7-tetrahydro-1H-pyrrolo[3,2-c]pyridine] | < 0.5 | > 70 |
| Cc1cc(S(C)(=O)=O)ncc1N1CCc2[nH]c(-c3ccncc3Cl)cc2C1 [Example 108, 2-(3-Chloro-pyridin-4-yl)-5-(4-methyl-6-methylsulfonyl-pyridin-3-yl)-4,5,6,7-tetrahydro-1H-pyrrolo[3,2-c]pyridine] | 0.5 to 1 | < 50 |
| Cc1cc(S(=O)(=O)N2CCCCC2)ccc1N1CCc2[nH]c(-c3c(F)cccc3F)cc2C1 [Example 119, 2-(2,6-Difluoro-phenyl)-5-[2-methyl-4-(piperidin-1-ylsulfonyl)-phenyl]-4,5,6,7-tetrahydro-1H-pyrrolo[3,2-c]pyridine] | 1 to 5 | < 50 |
| COC(=O)c1ccc(N2CCc3[nH]c(-c4c(F)cccc4F)cc3C2)c(C)c1 [Example 13, 4-[2-(2,6-Difluoro-phenyl)-4,5,6,7-tetrahydro-1H-pyrrolo[3,2-c]pyridin-5-yl]-3-methyl-benzoic acid methyl ester] | 0.5 to 1 | < 50 |
| CC(=O)c1ccc(N2CCc3[nH]c(-c4c(F)cccc4F)cc3C2)c(C)c1 [Example 82, 1-[4-[2-(2,6-Difluoro-phenyl)-4,5,6,7-tetrahydro-1H-pyrrolo[3,2-c]pyridin-5-yl]-3-methyl-phenyl]-ethanone] | 0.5 to 1 | > 70 |

Source: patent publication US20160151337A1, “ANNELATED PYRROLES AND THEIR USE AS CRAC INHIBITORS” (Grünenthal GmbH, priority 2013, published 2016)
